Measured values reported in PubChem BioAssay AID330 (DTP/NCI, 2004).
Several values for one entry are separate records, joined by “and”; a condition that tells them apart may be missing. Equal values may be shown once. Toxic doses and inconclusive results are not listed. Square brackets hold non-standard residues; d marks the D form. Peptide text beside a SMILES is read from it. * marks the point of attachment. ξ: configuration not given here. Cbz = O=C(OCc1ccccc1)*; ξNva = CCCC(N)C(=O)O

Tested on: P388 leukemia ip, CD2F1 mice, survival T/C
Experiment: NCI In Vivo Anticancer Drug Screen. Data for tumor model P388 Leukemia (intraperitoneal) in CD2F1 (CDF1) mice
Conditions: endpoint: median survival time, higher = longer survival
Outline: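 Mice carrying the transplanted tumor received test compound or vehicle. Survival was recorded in each group, and the value is the treated-group measurement divided by that of the vehicle-treated control group.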

[1] = dose: 50.0 mg/kg/injection, schedule: Q01DX009 (ip), vehicle: Klucel (hydroxypropylcellulose) (HPC)
[2] = dose: 100.0 mg/kg/injection, schedule: Q01DX009 (ip), vehicle: Klucel (hydroxypropylcellulose) (HPC)
[3] = dose: 200.0 mg/kg/injection, schedule: Q01DX009 (ip), vehicle: Klucel (hydroxypropylcellulose) (HPC)
[4] = dose: 100.0 mg/kg/injection, schedule: Q01DX001 (ip), vehicle: Klucel (hydroxypropylcellulose) (HPC)
[5] = dose: 200.0 mg/kg/injection, schedule: Q01DX001 (ip), vehicle: Klucel (hydroxypropylcellulose) (HPC)
[6] = dose: 400.0 mg/kg/injection, schedule: Q01DX001 (ip), vehicle: Klucel (hydroxypropylcellulose) (HPC)
[7] = dose: 25.0 mg/kg/injection, schedule: Q01DX009 (ip), vehicle: saline
[8] = dose: 50.0 mg/kg/injection, schedule: Q01DX009 (ip), vehicle: saline
[9] = dose: 400.0 mg/kg/injection, schedule: Q01DX009 (ip), vehicle: Klucel (hydroxypropylcellulose) (HPC)
[10] = dose: 60.0 mg/kg/injection, schedule: Q01DX005 (ip), vehicle: Klucel (hydroxypropylcellulose) (HPC)
[11] = dose: 120.0 mg/kg/injection, schedule: Q01DX005 (ip), vehicle: Klucel (hydroxypropylcellulose) (HPC)
[12] = dose: 50.0 mg/kg/injection, schedule: Q01DX005 (ip), vehicle: saline with Tween-80
[13] = dose: 100.0 mg/kg/injection, schedule: Q01DX005 (ip), vehicle: saline with Tween-80
[14] = dose: 200.0 mg/kg/injection, schedule: Q01DX005 (ip), vehicle: saline with Tween-80
[15] = dose: 50.0 mg/kg/injection, schedule: Q01DX005 (ip), vehicle: Klucel (hydroxypropylcellulose) (HPC)
[16] = dose: 100.0 mg/kg/injection, schedule: Q01DX005 (ip), vehicle: Klucel (hydroxypropylcellulose) (HPC)
[17] = dose: 200.0 mg/kg/injection, schedule: Q01DX005 (ip), vehicle: Klucel (hydroxypropylcellulose) (HPC)

With CC(C)C1(c2ccccc2)C(=O)c2ccccc2C1=O the T/C (dose: 100.0 mg/kg/injection, schedule: Q04DX003 (ip), vehicle: saline) was 102 % of control, the T/C (dose: 200.0 mg/kg/injection, schedule: Q04DX003 (ip), vehicle: saline) was 103 % of control and the T/C (dose: 400.0 mg/kg/injection, schedule: Q04DX003 (ip), vehicle: saline) was 105 % of control.

With C(=Nc1ccc(N=Cc2ccccc2P(c2ccccc2)c2ccccc2)cc1)c1ccccc1P(c1ccccc1)c1ccccc1 the T/C [1] was 99 % of control, the T/C [2] was 99 % of control and the T/C [3] was 99 % of control.

COc1ccc2nc(N=Nc3ccc(N4CCOCC4)cc3C)sc2c1 was tested, and the T/C [4] was 86 % of control, the T/C [5] was 86 % of control and the T/C [6] was 88 % of control.

For CCCCCCCCCCCCCCCCCCCC[N+]1([O-])CCOCC1, the T/C (dose: 3.12 mg/kg/injection, schedule: Q01DX009 (ip), vehicle: saline) was 101 % of control, the T/C (dose: 6.25 mg/kg/injection, schedule: Q01DX009 (ip), vehicle: saline) was 87 % of control and the T/C (dose: 12.5 mg/kg/injection, schedule: Q01DX009 (ip), vehicle: saline) was 87 % of control and 94 % of control. For the same compound, the T/C [7] was 94 % of control and the T/C [8] was 90 % of control and 92 % of control.

For CCSC(=O)c1ccc(S(=O)(=O)CC)cc1, the T/C [1] was 102 % of control, the T/C [2] was 98 % of control and the T/C [3] was 106 % of control. The T/C [9] was 107 % of control.

With Cc1c(C2=C(Br)C(=O)N(C)C2=O)c(=O)n(C)c(=O)n1C the T/C [10] was 111 % of control and the T/C [11] was 118 % of control.

For C/C(=N\NC(=S)Nc1cccc2cccc(S(=O)(=O)O)c12)c1ccccn1, the T/C [12] was 102 % of control, the T/C [13] was 100 % of control and the T/C [14] was 112 % of control.

In the case of Cc1cc(=O)n2c(c1)[nH]c1ccccc12, the T/C [4] is reported as 89 % of control, the T/C [5] is reported as 90 % of control and the T/C [6] is reported as 88 % of control.

In the case of CNC(=O)OCc1c(COC(=O)NC)c(-c2ccc(-c3ccccc3)cc2)n(C)c1C, the T/C (dose: 2.5 mg/kg/injection, schedule: Q01DX009 (ip), vehicle: distilled water + Tween-80) is reported as 154 % of control, the T/C (dose: 5.0 mg/kg/injection, schedule: Q01DX009 (ip), vehicle: distilled water + Tween-80) is reported as 152 % of control and the T/C (dose: 10.0 mg/kg/injection, schedule: Q01DX009 (ip), vehicle: distilled water + Tween-80) is reported as 151 % of control. For the same compound, the T/C (dose: 15.0 mg/kg/injection, schedule: Q01DX009 (ip), vehicle: distilled water + Tween-80) was 153 % of control and the T/C (dose: 20.0 mg/kg/injection, schedule: Q01DX009 (ip), vehicle: distilled water + Tween-80) was 94 % of control.

With N#Cc1ccc(OC(=O)Nc2ccc(Cl)c(Cl)c2)cc1 the T/C [10] was 118 % of control, the T/C [11] was 107 % of control and the T/C (dose: 240.0 mg/kg/injection, schedule: Q01DX005 (ip), vehicle: Klucel (hydroxypropylcellulose) (HPC)) was 115 % of control.

In the case of CCCC(NC(=O)OCc1ccccc1)C(=O)NCC(=O)O (stereo not drawn) (Cbz-[ξNva]-Gly-OH), the T/C [15] is reported as 107 % of control, the T/C [16] is reported as 93 % of control and the T/C [17] is reported as 91 % of control.

For O=C(CCCCCCC(=O)ON1C(=O)CCC1=O)ON1C(=O)CCC1=O, the T/C [12] was 122 % of control.

For C1=CCC2CSCC2C1 (stereo not drawn), the T/C (dose: 37.5 mg/kg/injection, schedule: Q01DX001 (ip), vehicle: saline sonified) was 100 % of control and the T/C (dose: 75.0 mg/kg/injection, schedule: Q01DX001 (ip), vehicle: saline sonified) was 105 % of control.

CC(C)c1nc2c(n1Cc1ccccc1)C=C(C(=O)c1ccccc1)S(=O)(=O)C(C(=O)c1ccccc1)=C2 was tested, and the T/C (dose: 60.0 mg/kg/injection, schedule: Q01DX005 (ip), vehicle: saline with Tween-80) was 96 % of control, the T/C (dose: 120.0 mg/kg/injection, schedule: Q01DX005 (ip), vehicle: saline with Tween-80) was 90 % of control and the T/C (dose: 240.0 mg/kg/injection, schedule: Q01DX005 (ip), vehicle: saline with Tween-80) was 92 % of control.

O=Cc1cccc(OC(=O)Oc2cccc(C=O)c2)c1 was tested, and the T/C (dose: 100.0 mg/kg/injection, schedule: Q01DX001 (ip), vehicle: saline with Tween-80) was 101 % of control, the T/C (dose: 200.0 mg/kg/injection, schedule: Q01DX001 (ip), vehicle: saline with Tween-80) was 99 % of control and the T/C (dose: 400.0 mg/kg/injection, schedule: Q01DX001 (ip), vehicle: saline with Tween-80) was 104 % of control.

For C=CCNc1ncnc2sc(SC)nc12, the T/C (dose: 100.0 mg/kg/injection, schedule: Q04DX002 (ip), vehicle: distilled water + alcohol) was 100 % of control, the T/C (dose: 200.0 mg/kg/injection, schedule: Q04DX002 (ip), vehicle: distilled water + alcohol) was 104 % of control and the T/C (dose: 400.0 mg/kg/injection, schedule: Q04DX002 (ip), vehicle: distilled water + alcohol) was 99 % of control.

In the case of NC(=O)c1cc([N+](=O)[O-])cnc1Sc1ncn[nH]1, the T/C [1] is reported as 98 % of control and the T/C [2] is reported as 107 % of control.

Nc1cccc(NCc2ccccn2)n1 was tested, and the T/C [15] was 101 % of control and the T/C [16] was 104 % of control.

In the case of CC(C(=O)NC(=O)O)S(=O)(=O)O (stereo not drawn), the T/C (dose: 12.5 mg/kg/injection, schedule: Q01DX001 (ip), vehicle: saline with Tween-80) is reported as 101 % of control and the T/C (dose: 25.0 mg/kg/injection, schedule: Q01DX001 (ip), vehicle: saline with Tween-80) is reported as 103 % of control.

In the case of O=C(c1ccccc1)c1cccs1, the T/C (dose: 22.0 mg/kg/injection, schedule: Q01DX009 (ip), vehicle: saline with Tween-80) is reported as 113 % of control, the T/C (dose: 44.0 mg/kg/injection, schedule: Q01DX009 (ip), vehicle: saline with Tween-80) is reported as 104 % of control and the T/C (dose: 88.0 mg/kg/injection, schedule: Q01DX009 (ip), vehicle: saline with Tween-80) is reported as 109 % of control.

For O=C(OCN1C(=O)C2C3C=CC(C2C1=O)C1C2C(=O)N(COC(=O)C4CCCN4)C(=O)C2C31)C1CCCN1 (stereo not drawn), the T/C [7] was 105 % of control and 108 % of control, the T/C [8] was 108 % of control and the T/C (dose: 100.0 mg/kg/injection, schedule: Q01DX009 (ip), vehicle: saline) was 162 % of control and 205 % of control.

For CC(C)(C)c1cc2c(=O)o[s+]3oc(=O)c(c1)c23, the T/C (dose: 6.25 mg/kg/injection, schedule: Q01DX009 (ip), vehicle: Klucel (hydroxypropylcellulose) (HPC)) was 107 % of control, the T/C (dose: 12.5 mg/kg/injection, schedule: Q01DX009 (ip), vehicle: Klucel (hydroxypropylcellulose) (HPC)) was 104 % of control and the T/C (dose: 25.0 mg/kg/injection, schedule: Q01DX009 (ip), vehicle: Klucel (hydroxypropylcellulose) (HPC)) was 111 % of control.

For COc1cccc2c1CCC1=CC(=O)CCC12C (stereo not drawn), the T/C [15] was 102 % of control, the T/C [16] was 96 % of control and the T/C [17] was 93 % of control.

In the case of C(C#CCN1CCOCC1)#CCN1CCOCC1, the T/C [1] is reported as 109 % of control and 89 % of control, the T/C [2] is reported as 101 % of control and 89 % of control and the T/C [3] is reported as 101 % of control and 93 % of control. For the same compound, the T/C [9] was 98 % of control.

For Cc1ccc(C(=O)NC2C(=O)NC(C(C)C)C(=O)N3CCCC3C(=O)N(C)CC(=O)N(C)C(C(C)C)C(=O)OC2C)c2c1Oc1c(c(C(=O)NC3C(=O)NC(C(C)C)C(=O)N4CCCC4C(=O)N(C)CC(=O)N(C)C(C(C)C)C(=O)OC3C)c3nc(-c4ccccc4)c(=O)oc3c1C)N2 (stereo not drawn), the T/C (dose: 0.13 mg/kg/injection, schedule: Q01DX005 (ip), vehicle: water) was 168 % of control, the T/C (dose: 0.25 mg/kg/injection, schedule: Q01DX005 (ip), vehicle: water) was 181 % of control and 240 % of control and the T/C (dose: 1.0 mg/kg/injection, schedule: Q01DX005 (ip), vehicle: water) was 246 % of control.

For CNC(=O)O[C@H]1CC[C@@]2(C)C(=CC[C@H]3[C@@H]4CC[C@H]([C@H](C)CCCC(C)C)[C@@]4(C)CC[C@@H]32)C1, the T/C [12] was 100 % of control, the T/C [13] was 96 % of control and the T/C [14] was 100 % of control.

With Cc1oc2ccccc2c(=O)c1CN1CCN(c2ccccc2)CC1 the T/C (dose: 60.0 mg/kg/injection, schedule: Q01DX005 (ip), vehicle: saline) was 103 % of control, the T/C (dose: 120.0 mg/kg/injection, schedule: Q01DX005 (ip), vehicle: saline) was 101 % of control and the T/C (dose: 240.0 mg/kg/injection, schedule: Q01DX005 (ip), vehicle: saline) was 92 % of control.

With CS(=O)(=O)OCC(F)(F)COS(C)(=O)=O the T/C [12] was 94 % of control, the T/C [13] was 100 % of control and the T/C [14] was 99 % of control.
